Test [1] concerns the target T1, AHR (Homo sapiens, UniProt P35869).
T1 sequence (P35869 11-848): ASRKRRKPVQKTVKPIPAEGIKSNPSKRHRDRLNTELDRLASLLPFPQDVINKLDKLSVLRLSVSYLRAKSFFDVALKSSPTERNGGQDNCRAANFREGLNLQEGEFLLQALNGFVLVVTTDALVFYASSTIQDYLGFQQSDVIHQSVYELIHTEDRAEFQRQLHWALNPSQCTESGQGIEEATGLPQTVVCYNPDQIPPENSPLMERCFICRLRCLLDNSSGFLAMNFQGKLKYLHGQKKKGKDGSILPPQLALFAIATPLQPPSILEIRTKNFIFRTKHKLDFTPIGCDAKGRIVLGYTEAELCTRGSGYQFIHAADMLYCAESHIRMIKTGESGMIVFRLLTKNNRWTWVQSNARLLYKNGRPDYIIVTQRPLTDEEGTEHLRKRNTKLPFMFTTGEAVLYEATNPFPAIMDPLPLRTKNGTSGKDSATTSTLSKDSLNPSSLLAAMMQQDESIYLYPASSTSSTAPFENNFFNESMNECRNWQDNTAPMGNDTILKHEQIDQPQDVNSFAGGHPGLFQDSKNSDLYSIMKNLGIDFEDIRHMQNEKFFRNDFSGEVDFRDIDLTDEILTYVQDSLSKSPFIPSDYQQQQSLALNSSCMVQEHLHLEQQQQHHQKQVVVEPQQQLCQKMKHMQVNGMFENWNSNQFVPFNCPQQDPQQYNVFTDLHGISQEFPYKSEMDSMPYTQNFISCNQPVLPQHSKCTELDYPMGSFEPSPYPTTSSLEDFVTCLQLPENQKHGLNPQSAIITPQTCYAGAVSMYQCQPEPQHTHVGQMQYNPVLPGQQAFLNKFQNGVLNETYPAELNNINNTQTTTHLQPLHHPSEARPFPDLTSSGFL
As to the kind of experiment: In vitro assay 2: agonism in human cell line (transactivation assay, U87 cells, DRE firefly luciferase reporter). The test is classed as cell-based. Also noted: host or cells: U87 glioblastoma cells, stably transfected with DRE firefly luciferase and renilla reporter constructs. The conditions noted are these: no kynurenic acid, 20 hours, read-out: Assay 2: AHR-luc Hum Agonism IC50. The method, then: (§1) Transactivation Assay in Human Cell Line (In Vitro Assays 1 and 2)
(§2) Transactivation assays were carried out in U87 glioblastoma cells (ATCC) endogenously expressing AHR. In addition the cells were stably transfected with an AHR inducible firefly luciferase reporter gene construct that carried AHR-binding sites (DRE) in its promoter and a renilla reporter gene construct with constitutively active promoter. Kynurenic acid is an endogenous AHR activating ligand and was used to prestimulate test cells prior to testing the antagonistic properties of compounds.
In Vitro Assay 2: Agonism in Human Cell Line
As positive activation control cells were incubated with 300 uM kynurenic acid. Normalization was done by positive and negative controls.
For orientation: A reporter such as luciferase makes a cellular process visible.

The target of test [2] is T1, AHR. Description: In vitro assay 1: antagonism in human cell line (transactivation assay, U87 cells prestimulated with kynurenic acid, DRE firefly luciferase reporter). The test is classed as cell-based. Set-up: host or cells: U87 glioblastoma cells, stably transfected with DRE firefly luciferase and renilla reporter constructs. The conditions noted are these: 150 uM kynurenic acid, 20 hours, read-out: Assay 1: AHR-luc Hum Antagonism IC50. The protocol: as §1, §2
In Vitro Assay 1: Antagonism in Human Cell Line
Normalization was done by positive and negative controls.

Structures are written as SMILES.

The term IC50 denotes the concentration needed to halve the response being measured. Take `O=C(N[C@H](CO)C(F)(F)F)c1cc(-c2ccc(CF)cc2)nn(-c2cccnc2)c1=O` [Example 282, 6-[4-(Fluoromethyl)phenyl]-3-oxo-2-(pyridin-3-yl)-N-[(2R)-1,1,1-trifluoro-3-hydroxypropan-2-yl]-2,3-dihydropyridazine-4-carboxamide]: the IC50 in test [1] is greater than 20000 nM; in test [2], 304 nM.

On to `O=C(N[C@H]1COC[C@@H]1O)c1cc(-c2ccc(Cl)cc2)nn(-c2cncc(F)c2)c1=O` (single isomer, unassigned; enantiomer 2) [Example 156, 6-(4-Chlorophenyl)-2-(5-fluoropyridin-3-yl)-N-[(trans)-4-hydroxytetrahydrofuran-3-yl]-3-oxo-2,3-dihydropyridazine-4-carboxamide, Enantiomer 2], for which the IC50 is greater than 20000 nM in test [1] and 25 nM in test [2].

As for `Cn1cc(-n2nc(-c3ccc(Cl)cc3)cc(C(=O)NC[C@H](O)CF)c2=O)cn1` [Example 270, 6-(4-Chlorophenyl)-N-[(2S)-3-fluoro-2-hydroxypropyl]-2-(1-methyl-1H-pyrazol-4-yl)-3-oxo-2,3-dihydropyridazine-4-carboxamide], the values for the IC50 in test [1] and in test [2] were greater than 20000 nM and 64.5 nM, respectively.

Consider `O=C(N[C@H]1CCCC(F)(F)[C@@H]1O)c1cc(-c2ccc(Cl)cc2)nn(-c2cccnc2)c1=O` (racemic) [Example 143, 6-(4-Chlorophenyl)-N-[(trans)-3,3-difluoro-2-hydroxycyclohexyl]-3-oxo-2-(pyridin-3-yl)-2,3-dihydropyridazine-4-carboxamide], for which the IC50 is greater than 20000 nM in test [1] and 9.61 nM in test [2].

For the molecule `C[C@@H](NC(=O)c1cc(-c2ccc(C(F)(F)F)cc2)nn(-c2cnn(C)c2)c1=O)C(C)(C)O` [Example 202, N-[(2R)-3-Hydroxy-3-methylbutan-2-yl]-2-(1-methyl-1H-pyrazol-4-yl)-3-oxo-6-[4-(trifluoromethyl)phenyl]-2,3-dihydropyridazine-4-carboxamide], the IC50 in test [1] was greater than 20000 nM; in test [2], 0.825 nM.

As for `C[C@@H](CO)NC(=O)c1cc(-c2ccc(Cl)cc2)nn(-c2cncc(Cl)c2)c1=O` [Example 303, 6-(4-Chlorophenyl)-2-(5-chloropyridin-3-yl)-N-[(2S)-1-hydroxypropan-2-yl]-3-oxo-2,3-dihydropyridazine-4-carboxamide], the results for the IC50 in test [1] and in test [2] were greater than 20000 nM and 133 nM, respectively.

Consider `O=C(NCC1(O)CCC1)c1cc(-c2ccc(C(F)(F)F)cc2)nn(-c2cnsc2)c1=O` [Example 195, N-[(1-Hydroxycyclobutyl)methyl]-3-oxo-2-(1,2-thiazol-4-yl)-6-[4-(trifluoromethyl)phenyl]-2,3-dihydropyridazine-4-carboxamide], for which the IC50 in test [1] is greater than 20000 nM; in test [2] it was 0.363 nM.

`Cn1cc(-n2nc(-c3ccc(OC(F)(F)F)cc3)cc(C(=O)N[C@@H]3COC[C@@H]3O)c2=O)cn1` (racemic) [Example 55, N-[(cis)-4-Hydroxytetrahydrofuran-3-yl]-2-(1-methyl-1H-pyrazol-4-yl)-3-oxo-6-[4-(trifluoromethoxy)phenyl]-2,3-dihydropyridazine-4-carboxamide]: the IC50 is greater than 20000 nM in test [1] and 17.9 nM in test [2].

Take `CC(NC(=O)c1cc(-c2ccc(Cl)cc2)nn(-c2cccnc2)c1=O)C(O)C(F)(F)F` (single isomer, unassigned) [Example 297, 6-(4-Chlorophenyl)-3-oxo-2-(pyridin-3-yl)-N-(4,4,4-trifluoro-3-hydroxybutan-2-yl)-2,3-dihydropyridazine-4-carboxamide]: the figures for the IC50 in test [1] and in test [2] were greater than 20000 nM and 1.49 nM, respectively.

As to `O=C(N[C@H]1CCCC[C@H]1O)c1cc(-c2ccc(C(F)(F)F)cc2)nn(-c2cccnc2)c1=O` [Example 106, N-[(1S,2R)-2-Hydroxycyclohexyl]-3-oxo-2-(pyridin-3-yl)-6-[4-(trifluoromethyl)phenyl]-2,3-dihydropyridazine-4-carboxamide], in test [1], the IC50 was greater than 20000 nM.

Regarding `COC[C@H](CO)NC(=O)c1cc(-c2ccc(Cl)cc2)nn(-c2cncc(F)c2)c1=O` [Example 86, 6-(4-Chlorophenyl)-2-(5-fluoropyridin-3-yl)-N-[(2S)-1-hydroxy-3-methoxypropan-2-yl]-3-oxo-2,3-dihydropyridazine-4-carboxamide], the IC50 is greater than 20000 nM in test [1] and 55.9 nM in test [2].

As for `COC[C@H](CO)NC(=O)c1cc(-c2ccc(Cl)cc2)nn(-c2cccnc2)c1=O` [Example 74, (+)-6-(4-Chlorophenyl)-N-[(2S)-1-hydroxy-3-methoxypropan-2-yl]-3-oxo-2-(pyridin-3-yl)-2,3-dihydropyridazine-4-carboxamide], the IC50 is greater than 20000 nM in test [1] and 152 nM in test [2].

Regarding `COC[C@H](CO)NC(=O)c1cc(-c2ccc(C(F)(F)F)cc2)nn(-c2cccnc2)c1=O` [Example 111, N-[(2S)-1-Hydroxy-3-methoxypropan-2-yl]-3-oxo-2-(pyridin-3-yl)-6-[4-(trifluoromethyl)phenyl]-2,3-dihydropyridazine-4-carboxamide], the IC50 is greater than 20000 nM in test [1] and 26.5 nM in test [2].

With `C[C@]1(O)CCC[C@H]1NC(=O)c1cc(-c2ccc(OC(F)(F)F)cc2)nn(-c2cccnc2)c1=O` (single isomer, unassigned) [Example 330, N-[(cis)-2-hydroxy-2-methylcyclopentyl]-3-oxo-2-(pyridin-3-yl)-6-[4-(trifluoromethoxy)phenyl]-2,3-dihydropyridazine-4-carboxamide], the IC50 in test [1] was greater than 20000 nM; in test [2] it was 92.7 nM.

As to `C[C@H](CO)NC(=O)c1cc(-c2ccc(Cl)cc2)nn(-c2cncnc2)c1=O` [Example 279, 6-(4-Chlorophenyl)-N-[(2R)-1-hydroxypropan-2-yl]-3-oxo-2-(pyrimidin-5-yl)-2,3-dihydropyridazine-4-carboxamide], the IC50 is greater than 20000 nM in test [1] and 168 nM in test [2].

Consider `CC(NC(=O)c1cc(-c2ccc(Cl)cc2)nn(-c2cccnc2)c1=O)C(O)C(F)(F)F` (single isomer, unassigned) [Example 300, 6-(4-Chlorophenyl)-3-oxo-2-(pyridin-3-yl)-N-(4,4,4-trifluoro-3-hydroxybutan-2-yl)-2,3-dihydropyridazine-4-carboxamide], for which, in test [1], the IC50 is greater than 20000 nM.

With `O=C(NC[C@H](O)C(F)(F)F)c1cc(-c2ccc(C(F)(F)F)cc2)nn(-c2cccnc2)c1=O` [Example 117, 3-Oxo-2-(pyridin-3-yl)-N-[(2S)-3,3,3-trifluoro-2-hydroxypropyl]-6-[4-(trifluoromethyl)phenyl]-2,3-dihydropyridazine-4-carboxamide], the IC50 in test [1] was greater than 20000 nM.

On to `O=C(N[C@H]1COC[C@@H]1O)c1cc(-c2ccc(Cl)cc2)nn(-c2cccnc2)c1=O` (relative stereo) [Example 168, 6-(4-Chlorophenyl)-N-[(trans)-4-hydroxytetrahydrofuran-3-yl]-3-oxo-2-(pyridin-3-yl)-2,3-dihydropyridazine-4-carboxamide], for which the IC50 in test [2] was 240 nM.

Turning to `O=C(N[C@@H]1COC[C@@H]1O)c1cc(-c2ccc(C(F)(F)F)cc2)nn(-c2cccnc2)c1=O` (single isomer, unassigned) [Example 252, (−)-N-cis-4-Hydroxytetra-hydrofuran-3-yl-3-oxo-2-(pyridin-3-yl)-6-[4-(trifluoromethyl)phenyl]-2,3-dihydropyridazine-4-carboxamide], the IC50 in test [2] came to 18 nM.

As to `C[C@@H](CO)NC(=O)c1cc(-c2ccc(C(F)(F)F)nc2)nn(-c2cccnc2)c1=O` [Example 166, N-[(2S)-1-Hydroxypropan-2-yl]-3-oxo-2-(pyridin-3-yl)-6-[6-(trifluoromethyl)pyridin-3-yl]-2,3-dihydropyridazine-4-carboxamide], the IC50 in test [2] turned out to be 180 nM.

For `O=C(NCC(O)C(F)(F)F)c1cc(-c2ccc(C(F)(F)F)cc2)nn(-c2cccnc2)c1=O` (racemic) [Example 108, 3-Oxo-2-(pyridin-3-yl)-N-[(2RS)-3,3,3-trifluoro-2-hydroxypropyl]-6-[4-(trifluoromethyl)phenyl]-2,3-dihydropyridazine-4-carboxamide], the IC50 in test [1] was greater than 20000 nM.

Source of the values: patent US12522594B2, “2-heteroaryl-3-oxo-2,3-dihydropyridazine-4-carboxamides for the treatment of cancer” (Deutsches Krebsforschungszentrum, priority 2017, dated 2026).
